Laboratory results: the NIST ThermoML archive (doi:10.1021/je034218n)

Settings: Liquid, vibrating tube

COCCOCCO [2-(2-methoxyethoxy)ethanol]
mass density [kg/m3]
Settings	100 kPa	1000 kPa	2500 kPa	5000 kPa	7500 kPa	10000 kPa	15000 kPa	20000 kPa	25000 kPa
283.15 K	1028.5	1029	1029.8	1031.2	1032.5	1033.9	1036.4	1039	1041.4
293.15 K	1019.5	1020	1020.9	1022.3	1023.7	1025.2	1027.9	1030.5	1033.1
303.15 K	1010.8	1011.3	1012.2	1013.6	1015	1016.4	1019.3	1022.1	1024.8
313.15 K	1002	1002.6	1003.5	1005.1	1006.7	1008.2	1011.2	1014.1	1016.9
323.15 K	993.2	993.9	994.9	996.6	998.3	1000	1003.2	1006.2	1009.2
333.15 K	983.9	984.6	985.6	987.4	989.1	990.8	994.1	997.2	1000.2
343.15 K	975.2	975.8	977	978.8	980.6	982.4	985.9	989.2	992.4
353.15 K	965.7	966.4	967.6	969.5	971.4	973.3	976.9	980.4	983.7

CCOCCOCCO [3,6-dioxa-1-octanol]
mass density [kg/m3]
Settings	100 kPa	1000 kPa	2500 kPa	5000 kPa	7500 kPa	10000 kPa	15000 kPa	20000 kPa	25000 kPa
283.15 K	997.7	998.2	999.1	1000.6	1002	1003.4	1006.1	1008.8	1011.3
293.15 K	988.4	988.9	989.8	991.3	992.8	994.3	997.2	999.9	1002.6
303.15 K	979.5	980.1	981.1	982.6	984.2	985.8	988.8	991.7	994.6
313.15 K	970.6	971.2	972.2	973.9	975.5	977.1	980.3	983.4	986.3
323.15 K	961.5	962.1	963.2	965	966.8	968.5	971.9	975.1	978.2
333.15 K	952.4	953.1	954.3	956.1	958	959.7	963.2	966.5	969.8
343.15 K	943.4	944.1	945.3	947.3	949.2	951.1	954.8	958.3	961.6
353.15 K	934.1	934.9	936.1	938.2	940.2	942.2	946	949.7	953.2
